Reference: paper PMC7327383, “The affinity and selectivity of α‐adrenoceptor antagonists, antidepressants, and antipsychotics for the human α1A, α1B, and α1D‐adrenoceptors” (Pharmacology Research & Perspectives, 2020)
Like-named read-outs stand apart in the source and are kept apart here.

Tests used:
[1] = biological target: T1, full-length human α1D-adrenoceptor (Homo sapiens, UniProt P25100); assay: [3H]prazosin whole-cell competition binding, CHO-α1D cells
T1 sequence (P25100 1-572): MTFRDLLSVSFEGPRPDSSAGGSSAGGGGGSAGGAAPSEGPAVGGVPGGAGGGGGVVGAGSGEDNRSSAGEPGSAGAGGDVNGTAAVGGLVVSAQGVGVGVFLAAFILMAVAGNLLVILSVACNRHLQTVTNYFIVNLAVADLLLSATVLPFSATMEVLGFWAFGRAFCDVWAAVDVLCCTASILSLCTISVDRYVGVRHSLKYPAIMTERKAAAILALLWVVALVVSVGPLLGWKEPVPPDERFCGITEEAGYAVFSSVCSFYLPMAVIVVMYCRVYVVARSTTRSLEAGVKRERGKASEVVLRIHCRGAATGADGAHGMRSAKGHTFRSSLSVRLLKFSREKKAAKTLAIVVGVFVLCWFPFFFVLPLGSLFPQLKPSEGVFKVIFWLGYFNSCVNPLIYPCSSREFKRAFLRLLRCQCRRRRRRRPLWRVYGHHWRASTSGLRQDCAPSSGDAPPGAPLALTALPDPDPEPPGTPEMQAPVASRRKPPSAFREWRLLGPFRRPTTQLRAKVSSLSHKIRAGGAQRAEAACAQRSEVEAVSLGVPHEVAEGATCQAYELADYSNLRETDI

[2] = biological target: T2, human α1B-adrenoceptor (Homo sapiens, UniProt P35368); assay: [3H]prazosin whole-cell competition binding, CHO-α1B cells
T2 construct: CHO cells stably expressing either the full‐length human α1A, α1B, or α1D‐adrenoceptor
T2 sequence (P35368 1-520): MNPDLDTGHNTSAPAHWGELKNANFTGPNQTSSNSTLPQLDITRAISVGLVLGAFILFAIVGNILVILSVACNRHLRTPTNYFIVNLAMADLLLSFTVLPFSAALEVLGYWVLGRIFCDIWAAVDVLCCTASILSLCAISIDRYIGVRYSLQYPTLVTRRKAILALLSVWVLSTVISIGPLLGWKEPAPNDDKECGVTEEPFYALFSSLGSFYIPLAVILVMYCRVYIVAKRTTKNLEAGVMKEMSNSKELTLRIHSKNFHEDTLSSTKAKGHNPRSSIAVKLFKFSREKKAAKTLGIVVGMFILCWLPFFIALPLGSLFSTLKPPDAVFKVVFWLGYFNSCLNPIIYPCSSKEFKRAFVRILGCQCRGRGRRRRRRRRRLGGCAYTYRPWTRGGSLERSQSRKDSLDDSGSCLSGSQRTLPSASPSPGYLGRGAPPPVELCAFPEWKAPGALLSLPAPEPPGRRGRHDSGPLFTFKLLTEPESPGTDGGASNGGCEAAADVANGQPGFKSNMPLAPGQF

[3] = biological target: T3, human α1A-adrenoceptor (Homo sapiens, UniProt P35348); assay: [3H]prazosin whole-cell competition binding, CHO-α1A cells
T3 construct: CHO cells stably expressing either the full‐length human α1A, α1B, or α1D‐adrenoceptor
T3 sequence (P35348 1-466): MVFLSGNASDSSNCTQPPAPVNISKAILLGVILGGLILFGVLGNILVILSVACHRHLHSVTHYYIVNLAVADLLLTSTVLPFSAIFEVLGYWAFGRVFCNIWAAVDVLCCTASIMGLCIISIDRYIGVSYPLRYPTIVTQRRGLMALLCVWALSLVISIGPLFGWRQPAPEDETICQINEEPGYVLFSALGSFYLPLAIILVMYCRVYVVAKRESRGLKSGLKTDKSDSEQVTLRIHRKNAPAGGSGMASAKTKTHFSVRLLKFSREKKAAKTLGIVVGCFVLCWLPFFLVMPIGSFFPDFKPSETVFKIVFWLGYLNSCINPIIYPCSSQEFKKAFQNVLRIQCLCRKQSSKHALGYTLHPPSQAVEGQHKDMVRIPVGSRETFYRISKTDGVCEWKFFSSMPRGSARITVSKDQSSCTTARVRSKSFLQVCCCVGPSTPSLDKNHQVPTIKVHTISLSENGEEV

[4] = single-component inhibition curve, given as log KD (negative), mean ± SE mean
[5] = Log KD α1D, single-component inhibition curve, given as log KD (negative), mean ± SE mean
[6] = ratio of KD values, higher α1D affinity (site 1 KD)
[7] = ratio, 1 = no selectivity for a subtype over another
[8] = ratio of KD values, printed under α1A = higher α1A affinity, 1.0 under vs = none
[9] = single-component inhibition curve, given as log KD (negative), mean ± SE mean, read-out: Log KD α1A (converted)
[10] = ratio of KD values, higher α1B affinity, 1.0 under vs = none
[11] = single-component inhibition curve, given as log KD (negative), mean ± SE mean, read-out: Log KD α1B (converted)
[12] = ratio of KD values, higher α1A affinity, 1.0 under vs = none
[13] = two-component inhibition curve, proportion of site 1
[14] = log KD from 3H-prazosin whole cell binding, CHO cells, mean ± s.e.mean
[15] = percentage of inhibition through first component, control
[16] = Log KD α1A, single-component inhibition curve, given as log KD (negative), mean ± SE mean
[17] = Log KD α1D site 1, high-affinity component of two-component curve, control, used for selectivity

COc1ccccc1N1CCN(CCCNc2c(C)c(=O)n(C)c(=O)n2C)CC1 [5‐methyl‐urapidil]
Log KD α1D [1, 4]: −5.61 ± 0.07 | Log KD α1B [2]: −6.06 ± 0.04 | Selectivity ratio α1B vs α1D [2]: 2.8 fold | Selectivity ratio α1A vs α1B [3]: 148 fold | Selectivity ratio α1A vs α1D [3]: 417 fold | Log KD α1A [3, 4]: −8.23 ± 0.05

CCn1ccnc1CC1COc2ccccc2O1 (stereo not shown) [Imiloxan]
Kd [1, 5]: 9550 nM | Selectivity ratio α1A vs α1D [1, 6]: 2.6 fold | Selectivity ratio α1B vs α1D [1, 6]: >10 fold | selectivity α1B vs α1D [2, 7]: >10 | Selectivity ratio α1A vs α1B [3, 8]: >4.0 fold | selectivity α1A vs 1D [3, 7]: 2.6 | Kd [3, 9]: 25100 nM

CC(CN1c2ccccc2Sc2ccccc21)N(C)C (stereo not shown) [Promethazine]
Kd [1, 5]: 1780 nM | Selectivity ratio α1B vs α1D [2, 10]: 2.0 fold | Kd [2, 11]: 871 nM | Selectivity ratio α1A vs α1D [3, 12]: 18 fold | Selectivity ratio α1A vs α1B [3, 8]: 8.7 fold | Kd [3, 9]: 100 nM

O=C1Nc2ccccc2C2=NC(CN3CCN(c4ccccc4)CC3)CN12 (stereo not shown) [2-PMDQ]
% site 1 α1D ([1]; share of site 1 in the two-component inhibition curve): 57.6 ± 2.8% | % site 1 α1D [1, 13]: 57.6 ± 2.8% | Log KD α1B [2, 14]: -6.95 ± 0.05 | Log KD α1A [3, 14]: -8.19 ± 0.09

CNCCCC1c2ccccc2C=Cc2ccccc21 [Protriptyline]
Kd [1, 5]: 3470 nM | Selectivity ratio α1B vs α1D [2, 10]: 1.3 fold | Kd [2, 11]: 2690 nM | Selectivity ratio α1A vs α1D [3, 12]: 16 fold | Selectivity ratio α1A vs α1B [3, 8]: 13 fold | Kd [3, 9]: 214 nM

COc1ccccc1N1CCN(CC2CN3C(=O)N(C)c4ccccc4C3=N2)CC1 (stereo not shown) [2‐MPMDQ]
% site 1 α1D [1, 15]: 64.0 ± 2.1% site1 | Log KD α1B [2, 4]: −7.37 ± 0.04 | Log KD α1A [3, 4]: −9.06 ± 0.07

CN(C)CCC=C1c2ccccc2CCc2ccccc21 [Amitriptyline]
Kd [1, 5]: 562 nM | Selectivity ratio α1B vs α1D [1, 6]: 1.1 fold | selectivity α1B vs α1D [2, 7]: 1.1 | Kd [2, 11]: 603 nM | Selectivity ratio α1A vs α1B [3]: 93 fold | Selectivity ratio α1A vs α1D [3]: 87 fold | selectivities α1A vs α1B [3]: 93 | selectivity α1A vs α1B [3]: 93 | Kd [3, 16]: 6.46 nM

CC(C(O)c1ccc(O)cc1)N1CCC(Cc2ccccc2)CC1 (stereo not shown) [Ifenprodil]
Kd [1, 17]: 7.59 nM | Log KD α1D site 2 ([1]; low-affinity component of two-component curve, control): −6.05 ± 0.13 | % site 1 α1D [1, 15]: 48.8 ± 4.5% site 1 | Selectivity ratio α1B vs α1D [1, 6]: 43 fold | % site 1 α1D [1, 13]: -8.12 ± 0.18 -6.05 ± 0.13 48.8 ± 4.5% site 1 | selectivity α1B vs α1D [2, 7]: 43 | Kd [2, 11]: 324 nM | Selectivity ratio α1A vs α1D [3, 12]: 2.9 fold | Selectivity ratio α1A vs α1B [3, 8]: 15 fold | Kd [3, 9]: 21.9 nM

Cc1nc2n(c(=O)c1CCN1CCC(c3noc4cc(F)ccc34)CC1)CCCC2O (stereo not shown) [Paliperidone]
Log KD α1D site 2 [1]: −5.57 ± 0.21 | Selectivity ratio α1B vs α1D [1]: 1.3 fold | Kd [1, 17]: 33.9 nM | % site 1 α1D [1, 15]: 57.6 ± 4.9% site 1 | % site 1 α1D [1, 13]: -7.47 ± 0.10 -5.57 ± 0.21 57.6 ± 4.9% site 1 | selectivity α1B vs α1D [2]: 1.3 | Kd [2, 11]: 43.7 nM | Selectivity ratio α1A vs α1B [3]: 10 fold | Selectivity ratio α1A vs α1D [3]: 7.8 fold | Kd [3, 9]: 4.37 nM

Cn1cc(C(F)(F)F)nc1-c1ccc(OCC(O)CNCCOc2ccc(O)c(C(N)=O)c2)cc1 (stereo not shown) [CGP 20712A]
Kd ([1]; Log KD α1D (apparent), apparent KD: maximum concentration inhibited most but not all specific binding, IC50 from extrapolated curve): 11000 nM | Log IC50 α1B ([2]; log IC50 bound): Log IC50>-4 | selectivity α1B vs α1D [2, 7]: >9.1 | Kd ([3]; log KD from 3H-prazosin whole cell binding, CHO cells, mean ± s.e.mean, read-out: Log KD α1A (converted)): 11700 nM | selectivity α1A vs 1D [3, 7]: 1.1 | selectivity α1A vs α1B [3, 7]: >8.5

COc1ccc(C(CN(C)C)C2(O)CCCCC2)cc1 (stereo not shown) [Venlafaxime]
Selectivity ratio α1A vs α1D [1, 6]: 4.9 fold | Selectivity ratio α1B vs α1D [1, 6]: >24 fold | Log KD α1D [1, 4]: −4.38 ± 0.16 | Log KD α1B: result in words ([2]; no inhibition of [3H]prazosin binding at maximum concentration possible): No binding to 1 mmol/L | selectivity α1B vs α1D [2, 7]: >24 | binding at α1B ([2]; result in words in the Log KD α1B column): No binding to 1mM | binding at α1B (result in words) ([2]; up to the maximum concentration): No binding to 1mM | Log KD α1A (apparent) ([3]; app: top concentration inhibited most but not all specific binding, curve extrapolated): −3.69 ± 0.02^app | Selectivity ratio α1A vs α1B [3, 8]: >4.9 fold | selectivity α1A vs 1D [3, 7]: 4.9

CN(C)CCCN1c2ccccc2CCc2ccc(Cl)cc21 [Clomipramine]
Kd [1, 5]: 708 nM | Selectivity ratio α1B vs α1D [2]: 1.5 fold | Kd [2, 11]: 457 nM | Selectivity ratio α1A vs α1B [3]: 60 fold | Selectivity ratio α1A vs α1D [3]: 93 fold | Kd [3, 16]: 7.59 nM

Cn1cc(C(F)(F)F)nc1-c1ccc(OCC(O)CNCCOc2ccc(O)c(C(N)=O)c2)cc1 (stereo not shown) [CGP20712A]
Kd ([1]; Log KD α1D (apparent), app: top concentration inhibited most but not all specific binding, curve extrapolated): 11000 nM | Selectivity ratio α1A vs α1D [1, 6]: 1.1 fold | Selectivity ratio α1B vs α1D [1, 6]: >9.1 fold | IC50 ([2]; read-out: Log IC50 α1B (converted)): > 100 µM | Selectivity ratio α1A vs α1B [3, 8]: >8.5 fold | Kd [3, 9]: 11700 nM

Cc1ccc(OCC(O)C(C)NC(C)C)c2c1CCC2 (stereo not shown) [ICI118551]
Kd [1, 5]: 11000 nM | Selectivity ratio α1B vs α1D [1, 6]: 5.8 fold | Kd ([2]; app: top concentration inhibited most but not all specific binding, curve extrapolated, read-out: Log KD α1B (apparent) (converted)): 63100 nM | selectivity α1B vs α1D [2, 7]: 5.8 | Selectivity ratio α1A vs α1D [3, 12]: 1.9 fold | Selectivity ratio α1A vs α1B [3, 8]: 11 fold | Kd [3, 9]: 5890 nM

COc1ccccc1N1CCN(CCCNc2cc(=O)n(C)c(=O)n2C)CC1 [Urapidil]
Kd [1, 5]: 427 nM | Selectivity ratio α1B vs α1D [1, 6]: 7.4 fold | selectivity α1B vs α1D [2, 7]: 7.4 | Kd [2, 11]: 3160 nM | Selectivity ratio α1A vs α1D [3, 12]: 6.9 fold | Selectivity ratio α1A vs α1B [3, 8]: 51 fold | Kd [3, 9]: 61.7 nM
